Assay [1] has as its target T1, Csm6-2 (ApCsm6-2) (Actinomyces procaprae, UniProt Z9IBH4OPS2).
T1 construct: full length, tandem CARF1-HEPN1 (1-400) and CARF2-HEPN2 (401-797); N-terminal His6 tag, pET-28a, E. coli Rosetta (DE3), codon-optimised; homotetramer
T1 sequence (Z9IBH4OPS2 1-797): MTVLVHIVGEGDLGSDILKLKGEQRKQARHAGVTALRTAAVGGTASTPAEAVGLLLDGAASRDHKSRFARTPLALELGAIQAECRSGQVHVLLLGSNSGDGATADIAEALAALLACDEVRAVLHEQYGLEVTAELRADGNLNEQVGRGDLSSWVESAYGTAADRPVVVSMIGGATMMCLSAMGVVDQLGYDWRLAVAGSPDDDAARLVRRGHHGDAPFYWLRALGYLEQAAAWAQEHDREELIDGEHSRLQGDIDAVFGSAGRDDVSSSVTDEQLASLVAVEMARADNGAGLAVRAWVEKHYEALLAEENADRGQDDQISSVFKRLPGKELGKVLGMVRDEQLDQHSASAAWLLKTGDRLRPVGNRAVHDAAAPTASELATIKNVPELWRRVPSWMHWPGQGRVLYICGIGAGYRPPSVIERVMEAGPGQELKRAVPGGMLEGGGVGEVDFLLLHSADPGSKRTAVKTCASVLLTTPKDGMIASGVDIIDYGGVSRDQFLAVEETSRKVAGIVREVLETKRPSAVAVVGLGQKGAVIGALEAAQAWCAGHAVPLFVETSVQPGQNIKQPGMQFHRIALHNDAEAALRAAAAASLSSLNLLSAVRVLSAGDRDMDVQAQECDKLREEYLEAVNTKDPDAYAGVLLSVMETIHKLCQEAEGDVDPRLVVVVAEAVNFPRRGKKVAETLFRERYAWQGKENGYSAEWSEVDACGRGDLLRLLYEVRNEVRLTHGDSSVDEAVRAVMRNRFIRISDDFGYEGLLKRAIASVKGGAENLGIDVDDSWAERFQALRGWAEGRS
The experiment in a line: SPR (Biacore 8K, CM5 chip, amine-coupled Csm6-2). The format is binding. A general note: Surface plasmon resonance follows binding to a sensor surface in real time, without labels.

Assay [2] has as its target Csm6-2 L473E/L474E mutant (Actinomyces procaprae). The experiment in a line: SEC; size-exclusion chromatography profiles of WT and L473E/L474E mutant proteins. In general terms: In gel filtration, larger molecules generally elute earlier.

What is called Kd is the free concentration of one partner at which half of the binding sites on the other are occupied at equilibrium, for simple one-to-one binding. Read a high Kd as lower affinity. As a reminder, the stoichiometry N is a count of units in the complex or per binding partner.

Like-named read-outs stand apart in the source and are kept apart here.

In assay [1] (PBST (0.5% Tween-20) running buffer, allosteric activator, CARF domain pocket), `Nc1ncnc2c1ncn2[C@@H]1O[C@@H]2COP(=O)(O)O[C@H]3[C@@H](O)[C@H](n4cnc5c(N)ncnc54)O[C@@H]3COP(=O)(O)O[C@H]3[C@@H](O)[C@H](n4cnc5c(N)ncnc54)O[C@@H]3COP(=O)(O)O[C@H]3[C@@H](O)[C@H](n4cnc5c(N)ncnc54)O[C@@H]3COP(=O)(O)O[C@H]3[C@@H](O)[C@H](n4cnc5c(N)ncnc54)O[C@@H]3COP(=O)(O)O[C@H]2[C@H]1O` [cA5] came in with a Kd of 1.41 nM. `Nc1ncnc2c1ncn2[C@@H]1O[C@@H]2COP(=O)(O)O[C@H]3[C@@H](O)[C@H](n4cnc5c(N)ncnc54)O[C@@H]3COP(=O)(O)O[C@H]3[C@@H](O)[C@H](n4cnc5c(N)ncnc54)O[C@@H]3COP(=O)(O)O[C@H]3[C@@H](O)[C@H](n4cnc5c(N)ncnc54)O[C@@H]3COP(=O)(O)O[C@H]3[C@@H](O)[C@H](n4cnc5c(N)ncnc54)O[C@@H]3COP(=O)(O)O[C@H]3[C@@H](O)[C@H](n4cnc5c(N)ncnc54)O[C@@H]3COP(=O)(O)O[C@H]2[C@H]1O` [cA6] came in with a Kd in assay [1] of 3.72 nM.

Csm6-2 L473E/L474E mutant (enzyme) yielded a stoichiometry N in assay [2] of 2.

(Values after article PMC13187428, “Mechanistic basis for selective Csm6-2 activation by cyclic penta-adenylate in a type III CRISPR-Cas system” (The EMBO Journal, 2026).)
